Source: patent US9334272B2, “Derivatives of purinic and pyrimidinic antiviral agents and use thereof as potent anticancer agents” (Ramot at Tel-Aviv University Ltd., priority 2007, dated 2016)

Columns and labels:
[1] = system: kinases which phosphorylate acyclovir; assay: Acyclovir phosphorylation (viral thymidine kinase activity) in 4T1 cell extracts; type: cell-based, murine; details: 4T1 cells, 24 hours, 40 μM
Procedure: The mammalian thymidine kinase (TK) has a narrow specificity and acts only on thymidine. […] The lysates obtained were kept at −70 ° C. until analyzed either spectroscopically or by RT-PCR. […] The ADP is converted to ATP by pyruvate kinase when it hydrolyzes phosphoenolpyruvate (PEP) to pyruvate. Lactate dehydrogenase then converts pyruvate to lactate and NADH to NAD^+. The decrease in fluorescence emitted by NADH (excitation/emission of 320/460 nm) during 10 cycles, each lasting 1 minute, were monitored using a FluoStar fluorometer. The reaction velocity was determined by the slope of the fluorescence vs. time.

herpes virus = details: Brigden & Whiteman, 1983; cited from earlier work
U-251 cells [2] = assay: Cell cycle analysis (propidium iodide flow cytometry), U-251 cells; type: cell-based, human; details: 24 hours
Procedure: Cells (4×10^5) were seeded in 35 mm culture dishes and after 24 hours were starved in medium without serum for an additional 24 hours, and then treated with the drug for an additional 24 hours. The cells were then trypsinized to a single cell suspension in PBS, washed, and resuspended in PBS at a concentration of 10^6 cells/mL. The cells were fixed with 70% ethanol for 30 minutes at 4° C., centrifuged and resuspended in 1 ml PBS containing 0.1% Tween 20 and 0.05% bovine serum albumin (BSA). RNase free of DNase was added, and the cell suspension (10^6 cells) was incubated at […] for 30 minutes. The cell suspension was then chilled on ice to a temperature in the range of 2 to 8° C. Propidium iodide (50 μg/mL) was added to the cell suspension, which was than kept in the dark. Red fluorescence (>630 nm) was analyzed on the flow cytometer.

U-251 cells [3] = assay: Hoechst viability assay, U-251 glioma cells; type: cell-based, human; details: 72 hours, Hoechst
Procedure: (§1) Cells (in quadruplicate) at the specified density were suspended in 200 μL medium supplemented with 10% FCS seeded in 96-well plates for 24 hours, then exposed to the drugs for 72 hours. The viability of the cells was determined by Hoechst fluorescent assay as described by Nudelman et al., 2005. Leukemic cell viability after 72 hours of treatment was determined by an MTT (3-(4,5-dimethylthiazol-2-yl)-2,5-diphenyltetrazolium bromide) assay as described by Levovich et al., 2007.
(§2) IC50 values were determined by linear regression of the percentage of survival following drug titration.

U-251 cells [4] = assay: Apoptosis/cell death by annexin V-FITC and propidium iodide FACS, U-251 cells; type: cell-based; details: Homo sapiens; U-251 glioblastoma cells, 50 μM, 24 hours (untreated 9%)
Procedure: Cells were seeded in six-well plates (10^5 cells/well) for 24 hours and were then treated as specified, trypsinized, washed with PBS, double-stained with annexin V-FITC (fluorescein isothiocyanate) and propidium iodide, according to the manufacturer's instructions and subjected to flow cytometry analysis (FACScalibur cytometer, Becton Dickinson).

proteasome = target: T1, proteasome (Homo sapiens, UniProt P28074); assay: Proteasome activity assay, U-251 cells; type: cell-based; details: 4 or 24 hours, alone or in combination
T1 construct: proteasome activity in U-251 cells treated for 4 or 24 hours; endogenous in cells; host or cells: U-251 cells (lysates of treated cells)
T1 sequence (P28074 60-263): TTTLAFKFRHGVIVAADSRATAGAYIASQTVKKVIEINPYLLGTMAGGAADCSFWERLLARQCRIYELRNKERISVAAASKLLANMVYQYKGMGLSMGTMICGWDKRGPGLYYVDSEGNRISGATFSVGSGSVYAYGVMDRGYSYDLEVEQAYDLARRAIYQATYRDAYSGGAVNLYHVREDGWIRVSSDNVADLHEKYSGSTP
Procedure: The peptidase or chymotrypsin-like activity of the proteasome was assayed using N-succinyl-Leu-Leu-Val-Tyr-7-amido-4-methylcoumarin. The lysates (100 μL) were incubated with 13 (M of the substrate in 100 mM Tris, pH 7.5, for 1 hour with shaking at room temperature. The reaction was stopped by addition of ice-cold ethanol, and the samples were centrifuged for 5 minutes at 2500 g. The supernatants were collected and the fluorescence was measured with excitation/emission filters of 390/460 nm using the FluoStar fluorimeter. The protein concentration was determined using a BCATM kit (Pierce) and the proteasome activity was derived from the ratio of fluorescence at 460 nm/(g of protein. The percentage of proteasome activity was calculated relative to untreated cells.

acetylated histone H4 = assay: Histone H4 acetylation Western blot, U-251 cells; type: cell-based, human; details: 2-4 hours of treatment
Procedure: For the determination of in vitro histone acetylation, 2.5-3×10^6 cells, seeded in 100 mm culture dishes, were supplemented with RPMI medium containing 10% heat inactivated FCS and were treated with the drugs the following day. At the specified times post-treatment, the cells were removed with a rubber policeman, centrifuged, washed, lysed with lysis buffer (PBS, Nonidet® NP-40 1%, sodium deoxycholate 0.5%, sodium dodecyl sulfate (SDS) 0.1%, 1 mM phenylmethylsulfonyl fluoride (PMSF), 1 mM sodium orthovanadate, and 1 μM each of leupeptin and pepstatin) and centrifuged at 10,000 g for 10 minutes at 4° C. […] The extract was then lyophilized, and protein concentration was determined with a BCA kit (Pierce, USA). […] The fold increase of acetylated histones was determined by the ratio of band intensities of treated and untreated cells or mice, normalized to loading control (total histone H3).
Cell lysates or acid extracted histones were solubilized in a concentrated (×4) loading buffer (62.5 mM Tris-HCl, pH 6.8, 1% SDS, 10% glycerol v/v, 1% dithiothreitol (DTT) and 0.1 mg/ml bromophenol blue). […] The membrane was exposed for 5 minutes to Chemiluminescence BioMax light film (Kodak, USA) and the intensity of the bands was measured with a VersaDoc instrument with a Quantityl program (Bio-Rad, USA). […]

U-251 cells [5] = assay: Reactive oxygen species by DCF-DA FACS, U-251 cells; type: cell-based, human; details: 2 hour treatment
Procedure: ROS levels were determined by FACS analysis of U-251 cells treated with dichlorodihydrofluorescein diacetate (DCF-DA), which becomes fluorescent when oxidized.

U-251 cells [6] = assay: Mitochondrial membrane potential (JC-1 staining), U-251 cells; type: cell-based, human; details: 60 μM, 24 hour treatment
22RV1 cells = assay: Hoechst viability assay, 22RV1 prostate carcinoma cells; type: cell-based, human; details: 72 hours, Hoechst
Procedure: as §1, §2

SMILES: Nc1nc2c(ncn2COCCO)c(=O)[nH]1 [acyclovir, reference compound]
- rate of acyclovir phosphorylation (kinase activity) [1]: no effect on the kinase activity
- inhibition of herpes virus replication at concentrations lower than those inhibiting mammalian cellular functions (herpes virus): 300-3000 fold
- phase of cell-cycle arrest (U-251 cells [2]; 1 mM): S phase
- Percentage of cells in G0-G1 stage (U-251 cells [2]; 1000 μM): 14.1%
- Percentage of cells in G2-M stage (U-251 cells [2]; 1000 μM): 12.2%
- Percentage of cells in S stage (U-251 cells [2]; 1000 μM): 73.6%
- IC50 (U-251 cells [3]): could not be reached
- mortality at 50 µM (U-251 cells [4]): 11%
- inhibitory effect on proteasome activity (proteasome): only a marginal inhibitory effect
- acetylation of histone H4 (acetylated histone H4): did not
- level of oxidation in cells (ROS) (U-251 cells [5]): little if any effect
- mitochondrial membrane potential (U-251 cells [6]): no apparent effect
- IC50 (22RV1 cells): could not be reached
